Data set [1] addresses T1, human D2 receptors (Homo sapiens, UniProt P14416). The data set is described as follows: cell-based.
The conditions of data set [2]: refractory schizophrenic patients; cited from earlier work.
Data set [3] has as its target human 5HT2A receptors (Homo sapiens, UniProt P28223).
Data set [4] deals with T1, human D2 receptors. The settings on record: R-SAT agonist; short form of the D2 receptor; +/− standard deviation of three to eight determinations.
Data set [5] has as its system hyperactivity induced by MK-801 (dizocilpine). The data set is described as follows: MK-801 induced hyperactivity. Format: in vivo, rats. An excerpt:
(§1) . In FIG. 2A and 2B, asterisks indicate statistical significance (p<0.05) compared to respective vehicle control. […]

The test system of data set [6] is spontaneous locomotion. Nature of the data set: Spontaneous locomotion. It counts as in vivo. The settings on record: s.c.; rats (FIG. 2A).
From the text: as §1

Data set [7] deals with levodopa-associated dyskinesias and motor response fluctuations. Nature of the data set: Double blind, placebo controlled study in parkinsonian patients. It counts as in vivo. Conditions: Patient Group II. The protocol: […]. […] […]. The compound of formula (I) is administered once daily for four weeks, with the dose escalating once each week. Assessments are made on the first day of each dose escalation.
The study is conducted on an […].
Patients who participate in the study have particular characteristics. The patients are between 30 and 80 years of age, inclusively. The patients had been diagnosed with idiopathic Parkinson's disease based on the presence of a characteristic clinical history and neurological findings.
The sample size is calculated for the primary endpoint: the Unified Parkinson's Disease Rating Scale (UPDRS) part III motor examination. […]. […] In this phase 2 study we will accept a two-sided alpha at a 0.05 significance level. Four patients will be added for the placebo group, totaling 21 subjects enrolled in the study.
Patients enter the levodopa infusion optimal rate determination (dose finding) portion of the study as soon as all prohibited medication has been withdrawn for at least four weeks.
Intravenous infusion of levodopa is conducted in an in-patient ward. […]. During the first and second days of optimal rate determination, two baseline UPDRS ratings are performed prior to levodopa infusion. […] Dyskinesia severity is similar to that experienced with each patient's usual therapeutic regimen. Levodopa will be administered by means of an indwelling intravenous catheter. The initial infusion rate of levodopa will not exceed 80 mg/hr.
Levodopa infusions will ordinarily last up to 8 hours, but may be continued uninterrupted for several days or be repeated on other days to obtain reliable assessment of motor function. The peripheral decarboxylase inhibitor carbidopa (50 mg, given every 3 hours) is administered orally starting at least one hour prior to intravenous administration of levodopa and continuing until levodopa effects have worn off. […]
Throughout the study, patients are evaluated weekly for drug safety and tolerability during their inpatient admission and two weeks after treatment for an outpatient follow-up visit. […]

Data set [8] deals with L-dopa induced dyskinesias. The data set is described as follows: L-dopa induced dyskinesia in MPTP monkeys. Conditions: s.c.; MPTP dyskinetic primates; dyskinetic movements scored as percentage of placebo (FIG. 3).
From the text: The use of 1-methyl-4-phenyl-1,2,3,6-tetrahydropyrilidine (MPTP) to induce parkinsonism in monkeys, coupled with prolonged administration of L-dopa induces severe dyskinesias.
Data set [9] relates to hyperactivity induced by d-amphetamine. The data set is described as follows: Amphetamine induced hyperactivity. Format: in vivo. The settings on record: mice.
Data set [10] deals with remaining monoaminergic receptor subtypes. Nature of the data set: Intrinsic activity at remaining monoaminergic receptor subtypes.

The term pEC50 denotes the EC50 on a negative log10 scale, so that one unit is a factor of ten.

pEC50: −log10 of the molar value.

T1 sequence (P14416 1-414 isoform P14416-2): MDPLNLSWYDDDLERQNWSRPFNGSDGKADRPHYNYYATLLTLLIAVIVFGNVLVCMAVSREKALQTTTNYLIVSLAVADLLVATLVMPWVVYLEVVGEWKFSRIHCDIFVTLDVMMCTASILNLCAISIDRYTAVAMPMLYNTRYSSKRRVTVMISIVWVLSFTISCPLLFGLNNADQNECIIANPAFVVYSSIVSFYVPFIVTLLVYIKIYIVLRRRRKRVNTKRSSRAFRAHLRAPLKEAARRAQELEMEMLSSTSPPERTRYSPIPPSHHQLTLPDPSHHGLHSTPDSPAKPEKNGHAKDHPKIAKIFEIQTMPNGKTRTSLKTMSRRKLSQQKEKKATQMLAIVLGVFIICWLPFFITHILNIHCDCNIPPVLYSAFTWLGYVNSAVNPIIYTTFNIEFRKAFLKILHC
human 5HT2A receptors, sequence (P28223 whole entry): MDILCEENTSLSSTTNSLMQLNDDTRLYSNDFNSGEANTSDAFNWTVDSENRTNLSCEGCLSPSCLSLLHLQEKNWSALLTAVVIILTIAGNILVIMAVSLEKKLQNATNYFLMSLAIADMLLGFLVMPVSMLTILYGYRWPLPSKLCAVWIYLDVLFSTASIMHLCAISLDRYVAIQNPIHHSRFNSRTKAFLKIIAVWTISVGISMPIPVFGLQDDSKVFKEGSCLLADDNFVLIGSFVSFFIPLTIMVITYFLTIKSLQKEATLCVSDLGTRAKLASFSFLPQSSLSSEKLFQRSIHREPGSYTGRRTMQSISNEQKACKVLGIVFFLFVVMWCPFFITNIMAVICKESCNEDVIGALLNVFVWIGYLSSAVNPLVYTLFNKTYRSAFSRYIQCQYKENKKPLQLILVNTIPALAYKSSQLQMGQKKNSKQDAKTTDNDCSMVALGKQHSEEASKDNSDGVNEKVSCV

In turn, `CC(C)C[C@H]1C(=O)N2CCC[C@H]2[C@]2(O)O[C@](NC(=O)[C@@H]3C=C4c5cccc6[nH]c(Br)c(c56)C[C@H]4N(C)C3)(C(C)C)C(=O)N12` [Bromocriptine] had a pEC50 in data set [1] of 9.37.
Consider `CN1CCN(C2=Nc3cc(Cl)ccc3Nc3ccccc32)CC1` [Clozapine], for which the “average serum levels associated with therapeutic response” value in [2] is ≥ 250 ng/mL.
Consider `NCCc1ccc(O)c(O)c1` [Dopamine], for which the “Potency against serotonin 5-HT2A receptor (FIG. 1B)” value in data set [3] (R-SAT agonist, reference full agonist serotonin) is “no response”.
Regarding `CCCN(CCC)CCc1cccc2c1CC(=O)N2` [Ropinirole], in [4], the “Dopamine D2, —Log (EC50)” value was 8.19 +/− 0.58. The “Serotonin 2A, —Log (EC50)” value in data set [3] is 6.85 +/− 0.77.
With `CC(C)COc1ccc(CNC(=O)N(Cc2ccc(F)cc2)C2CCN(C)CC2)cc1` [compound of formula (I), N-(1-methylpiperidin-4-yl)-N-(4-flourophenylmethyl)-N′-(4-(2-methylpropyloxy)phenylmethyl)carbamide], the “effect on MK-801 hyperactivity” value in [5] (i.p. administration, 1 mg/kg) is listed as “attenuated MK-801 hyperactivity”. In addition, the “minimum effective dose attenuating MK-801 hyperactivity” value in [5] (p.o., rats (FIG. 2B)) is reported as 10 mg/kg; in [5] (s.c., rats (FIG. 2A)), 1 mg/kg. In [6], the “doses reducing spontaneous locomotion” value is on record as ≥ 3 mg/kg. Moreover, the “effect on the beneficial effects of levodopa on parkinsonian symptoms” value in [7] (oral) was “potentiates the benefical effects of levodopa on parkinsonian symptoms”. In addition, the “levodopa-associated dyskinesias and motor response fluctuations” value in data set [7] (oral once daily, 30 to 300 mg escalating weekly) was “show a reducing in levodopa-associated dyskinesias and motor response fluctuations”. Besides, the tolerability result in data set [7] (oral, 30 to 300 mg) is recorded as “tolerate the compound of formula (I) at all doses administered”. In data set [8], the “effect on L-dopa induced dyskinesias” value is given as “significantly diminish L-dopa induced dyskinesias in a dose dependent manner”. In addition, the “effect on amphetamine hyperactivity, administered alone” value in data set [9] (10.0 mg/kg P.O. and below, 3.0 mg/kg I.P. d-amphetamine) is reported as “did not reduce hyperactivity”. Further, the “amphetamine hyperactivity with the combination” value in [9] (10.0 mg/kg P.O. compound of formula (I) combined with s.c. haloperidol) is recorded as “completely reversed”. For the same molecule, the “intrinsic activity at remaining monoaminergic receptor subtypes” value in data set [10] was “lacks intrinsic activity”.
Turning to `O=C(CCCN1CCC(O)(c2ccc(Cl)cc2)CC1)c1ccc(F)cc1` [haloperidol, reference compound], in data set [9] (haloperidol s.c. with 10.0 mg/kg P.O. compound of formula (I)), the “minimally significant dose reducing amphetamine hyperactivity, in combination” value was determined as 0.03 mg/kg. Moreover, the “minimally significant dose reducing amphetamine hyperactivity, alone” value in data set [9] (s.c., 3.0 mg/kg I.P. d-amphetamine) is listed as 0.1 mg/kg.

Source of the values: patent US10525046B2 (ACADIA Pharmaceuticals Inc., priority 2003, dated 2020).
